Here are results for six molecules from patent US9499519B2, “Fused pyrimidine compounds and use thereof” (Medivation Technologies, Inc., priority 2012, dated 2016).

Some results are limits rather than exact numbers.

What all share (type): biochemical
One experiment has as its target Trk C (Homo sapiens, UniProt Q16288). Briefly: HotSpot kinase assay: Trk C. To be noted: 100 nM compound, HotSpot; for inhibition at 0.1 µM: read-out: % Enzyme Inhibition @ 100 nM Trk C. On the procedure: (§1) Each compound was tested at a concentration of 0.1 μM in single duplicate mode against the 3 kinases. Compounds were prepared as 10 mM stock solutions in DMSO prior to use in the assay. […] IC50 values and curve fits were obtained using Prism (GraphPad Software).
(§2) The screening was performed using the “HotSpot” assay platform. The assay measures the conversion of a peptide substrate to ^33P-labelled phosphorylated product. Briefly, specific kinase/substrate pairs along with required cofactors were prepared in reaction buffer. Specifically, the substrate was prepared in reaction buffer (20 mM Hepes, pH 7.5; 10 mM MgCl2; 1 mM EGTA; 0.02% Brij35; 0.02 mg/mL BSA; 0.1 mM Na3VO4; 2 mM DTT; 1% DMSO), followed by delivery of any required cofactor to the resulting substrate solution. The corresponding kinase was delivered into the substrate solution and the reaction mixture was mixed gently. Compound was delivered into the reaction mixture, followed 15-20 minutes later by addition of a mixture of ATP (Sigma, St. Louis Mo.) and ^33P ATP (specific activity 0.01 μCi/μL final; Perkin Elmer, Waltham, Mass.) to a final concentration of 10 μM-30 μM to initiate the reaction. […] The percent of enzyme inhibition was calculated based on the percent of remaining kinase activity.
(§3) Kinase assays were performed using additional compounds against a panel of 4 kinases: AXL; c-Met; c-Mer; and Trk C. Each compound was tested at a concentration of […] in single duplicate mode against the 4 kinases. Compounds were prepared as 10 mM stock solutions in DMSO prior to use in the assay. […] IC50 values and curve fits were obtained using Prism (GraphPad Software).

The target in the next experiment is T1, c-Mer (Homo sapiens, UniProt Q12866).
T1 sequence (Q12866 21-999): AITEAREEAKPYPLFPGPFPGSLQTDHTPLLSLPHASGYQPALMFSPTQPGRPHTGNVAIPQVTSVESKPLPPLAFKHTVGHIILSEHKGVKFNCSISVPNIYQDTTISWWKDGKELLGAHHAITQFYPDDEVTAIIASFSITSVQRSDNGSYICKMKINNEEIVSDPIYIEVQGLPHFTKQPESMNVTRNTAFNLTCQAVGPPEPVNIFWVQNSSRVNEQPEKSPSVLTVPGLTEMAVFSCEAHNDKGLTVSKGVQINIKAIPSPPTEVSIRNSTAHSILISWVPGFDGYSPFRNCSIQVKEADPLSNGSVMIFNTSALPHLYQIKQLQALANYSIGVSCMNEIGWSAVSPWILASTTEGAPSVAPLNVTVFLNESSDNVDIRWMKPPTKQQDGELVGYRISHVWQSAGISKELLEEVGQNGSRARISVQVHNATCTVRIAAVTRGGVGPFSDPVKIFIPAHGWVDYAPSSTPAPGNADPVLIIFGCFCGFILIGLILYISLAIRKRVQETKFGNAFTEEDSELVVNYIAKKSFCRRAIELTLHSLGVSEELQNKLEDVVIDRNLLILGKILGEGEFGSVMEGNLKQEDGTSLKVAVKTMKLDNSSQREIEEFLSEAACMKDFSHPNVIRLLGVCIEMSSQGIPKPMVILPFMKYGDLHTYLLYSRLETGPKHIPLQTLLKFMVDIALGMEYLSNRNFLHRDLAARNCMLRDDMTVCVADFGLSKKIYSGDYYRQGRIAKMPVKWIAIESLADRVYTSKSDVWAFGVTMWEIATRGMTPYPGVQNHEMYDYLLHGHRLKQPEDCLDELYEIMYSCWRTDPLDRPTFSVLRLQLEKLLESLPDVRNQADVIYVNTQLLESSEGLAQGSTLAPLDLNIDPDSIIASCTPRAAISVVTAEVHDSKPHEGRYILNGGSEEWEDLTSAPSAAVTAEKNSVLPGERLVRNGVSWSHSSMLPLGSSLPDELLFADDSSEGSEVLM
Nature of the experiment: HotSpot kinase assay: c-Mer. To be noted: 100 nM compound, read-out: % Enzyme Inhibition @ 100 nM c-MER. As to the method: as §3, §2

A further experiment has as its target T2, AXL (Homo sapiens, UniProt P30530).
T2 sequence (P30530 26-894): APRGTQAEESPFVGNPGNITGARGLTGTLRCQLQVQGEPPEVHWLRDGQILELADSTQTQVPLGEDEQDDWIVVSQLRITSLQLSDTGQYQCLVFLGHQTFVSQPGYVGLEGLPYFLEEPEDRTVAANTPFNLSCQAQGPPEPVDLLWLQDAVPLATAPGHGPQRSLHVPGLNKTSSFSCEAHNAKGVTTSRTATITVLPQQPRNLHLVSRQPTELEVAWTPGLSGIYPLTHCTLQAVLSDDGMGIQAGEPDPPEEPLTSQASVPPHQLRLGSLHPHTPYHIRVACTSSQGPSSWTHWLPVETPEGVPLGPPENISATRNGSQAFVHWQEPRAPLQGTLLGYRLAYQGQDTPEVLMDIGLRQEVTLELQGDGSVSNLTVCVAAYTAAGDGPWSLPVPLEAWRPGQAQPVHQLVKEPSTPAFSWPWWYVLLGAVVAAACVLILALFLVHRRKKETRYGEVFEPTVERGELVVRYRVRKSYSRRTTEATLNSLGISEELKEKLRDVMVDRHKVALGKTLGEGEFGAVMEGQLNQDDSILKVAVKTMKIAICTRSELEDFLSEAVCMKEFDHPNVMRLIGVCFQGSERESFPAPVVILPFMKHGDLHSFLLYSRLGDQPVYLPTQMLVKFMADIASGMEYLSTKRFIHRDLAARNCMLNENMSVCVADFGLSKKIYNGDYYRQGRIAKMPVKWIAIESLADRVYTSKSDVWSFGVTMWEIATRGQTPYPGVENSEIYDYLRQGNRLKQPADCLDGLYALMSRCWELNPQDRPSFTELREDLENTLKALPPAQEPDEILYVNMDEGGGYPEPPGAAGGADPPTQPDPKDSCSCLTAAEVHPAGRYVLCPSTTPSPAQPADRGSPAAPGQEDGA
Briefly: HotSpot kinase assay: AXL. To be noted: 100 nM compound, read-out: % Enzyme Inhibition @ 100 nM AXL. On the procedure:
as §3, §2

In a further experiment the target is c-Met (Homo sapiens, UniProt P08581). Nature of the experiment: HotSpot kinase assay: c-Met. To be noted: 100 nM compound, read-out: % Enzyme Inhibition @ 100 nM c-MET. On the procedure:
as §3, §2

A further experiment addresses T3, IGF-1R (Homo sapiens, UniProt P08069).
T3 construct: purchased Millipore 14-802
Briefly: In vitro IGF-1R enzymatic assay (ADP-Glo kinase assay). To be noted: activated IGF-1R; for inhibition at 1 µM: in duplicate, read-out: inhibition of binding. As to the method: (§4) IC50 values of the compounds of the invention against IGF-1R and IR were measured in vitro using an ADP-Glo kinase assay Kit (Promega). […] Kinase reactions in both assays were conducted at 30° C. for 20 min with increasing concentrations of compounds of the invention.
Additional compounds of the invention were screened against activated IGF-1R.

The target in experiment [1] is T4, IR (Homo sapiens, UniProt P06213).
T4 construct: purchased Millipore 14-803
Briefly: In vitro IR enzymatic assay (ADP-Glo kinase assay). To be noted: activated IR. As to the method:
as §4
Additional compounds of the invention were screened against activated IR.
(ADP-Glo first removes unused ATP, then detects ADP through luciferase.)

In experiment [2] the target is T4, IR. Briefly: In vitro IR enzymatic assay (ADP-Glo kinase assay). To be noted: activated IR, in duplicate, read-out: inhibition of binding.
The next experiment concerns the target Trk B (Homo sapiens, UniProt Q16620). Briefly: HotSpot kinase assay: Trk B. To be noted: 100 nM compound. On the procedure: as §1, §2
For the next experiment, the target named is Trk A (Homo sapiens, UniProt P04629). Nature of the experiment: HotSpot kinase assay: Trk A. To be noted: 100 nM compound. As to the method: Kinase assays were performed using additional compounds against a panel of 3 kinases: Trk A; Trk B; and Trk C. Each compound was tested at a concentration of 0.1 μM in single duplicate mode against the 3 kinases. Compounds were prepared as 10 mM stock solutions in DMSO prior to use in the assay. […] IC50 values and curve fits were obtained using Prism (GraphPad Software). […]
The screening was performed using the “HotSpot” assay platform. The assay measures the conversion of a peptide substrate to ^33P-labelled phosphorylated product. Briefly, specific kinase/substrate pairs along with required cofactors were prepared in reaction buffer. Specifically, the substrate was prepared in reaction buffer (20 mM Hepes, pH 7.5; 10 mM MgCl2; 1 mM EGTA; 0.02% Brij35; 0.02 mg/mL BSA; 0.1 mM Na3VO4; 2 mM DTT; 1% DMSO), followed by delivery of any required cofactor to the resulting substrate solution. The corresponding kinase was delivered into the substrate solution and the reaction mixture was mixed gently. Compound was delivered into the reaction mixture, followed 15-20 minutes later by addition of a mixture of ATP (Sigma, St. Louis Mo.) and ^33P ATP (specific activity 0.01 μCi/μL final; Perkin Elmer, Waltham, Mass.) to a final concentration of 10 μM-30 μM to initiate the reaction. Reactions were carried out at room temperature for 120 minutes, followed by spotting of the reactions onto P81 ion exchange filter paper (Whatman #3698-915; Whatman Inc., Piscataway, N.J.). Unbound phosphate was removed by extensive washing of filters in 0.75% phosphoric acid. […] The percent of enzyme inhibition was calculated based on the percent of remaining kinase activity.

T3 sequence (P08069 31-1367): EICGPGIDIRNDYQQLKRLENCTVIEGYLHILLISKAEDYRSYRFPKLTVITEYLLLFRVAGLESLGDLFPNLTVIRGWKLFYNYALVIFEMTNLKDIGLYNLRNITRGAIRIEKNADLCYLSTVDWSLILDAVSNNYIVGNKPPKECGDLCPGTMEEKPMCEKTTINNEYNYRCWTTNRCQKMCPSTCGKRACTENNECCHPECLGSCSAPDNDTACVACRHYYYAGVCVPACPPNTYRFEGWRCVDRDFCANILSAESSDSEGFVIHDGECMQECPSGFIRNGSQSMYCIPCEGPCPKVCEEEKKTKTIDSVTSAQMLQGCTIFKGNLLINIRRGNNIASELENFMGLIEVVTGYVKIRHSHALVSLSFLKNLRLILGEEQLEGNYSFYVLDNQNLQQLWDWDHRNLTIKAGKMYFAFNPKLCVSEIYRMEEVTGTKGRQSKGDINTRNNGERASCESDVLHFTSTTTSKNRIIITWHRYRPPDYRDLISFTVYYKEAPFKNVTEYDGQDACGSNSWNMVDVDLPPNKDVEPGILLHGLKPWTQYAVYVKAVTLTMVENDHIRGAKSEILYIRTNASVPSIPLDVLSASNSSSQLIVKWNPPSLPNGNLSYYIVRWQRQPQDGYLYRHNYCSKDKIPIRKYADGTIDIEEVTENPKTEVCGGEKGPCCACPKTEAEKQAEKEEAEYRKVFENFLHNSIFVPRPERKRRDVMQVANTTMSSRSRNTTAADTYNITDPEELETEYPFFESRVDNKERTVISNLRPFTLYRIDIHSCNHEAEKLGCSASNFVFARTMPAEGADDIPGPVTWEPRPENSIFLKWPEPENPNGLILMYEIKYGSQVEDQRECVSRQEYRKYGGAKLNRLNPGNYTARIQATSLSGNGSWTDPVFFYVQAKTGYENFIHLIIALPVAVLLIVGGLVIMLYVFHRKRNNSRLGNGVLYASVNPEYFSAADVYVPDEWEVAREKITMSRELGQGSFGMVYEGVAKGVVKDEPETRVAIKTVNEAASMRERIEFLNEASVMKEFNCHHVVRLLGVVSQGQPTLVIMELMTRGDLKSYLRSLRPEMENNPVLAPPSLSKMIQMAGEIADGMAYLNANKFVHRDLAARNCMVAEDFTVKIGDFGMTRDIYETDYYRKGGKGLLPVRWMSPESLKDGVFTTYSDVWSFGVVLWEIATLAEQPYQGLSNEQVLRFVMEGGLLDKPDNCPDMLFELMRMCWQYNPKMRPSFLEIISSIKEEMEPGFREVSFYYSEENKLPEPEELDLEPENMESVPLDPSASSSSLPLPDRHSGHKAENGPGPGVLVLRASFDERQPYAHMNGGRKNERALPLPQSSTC
T4 sequence (P06213 28-1382): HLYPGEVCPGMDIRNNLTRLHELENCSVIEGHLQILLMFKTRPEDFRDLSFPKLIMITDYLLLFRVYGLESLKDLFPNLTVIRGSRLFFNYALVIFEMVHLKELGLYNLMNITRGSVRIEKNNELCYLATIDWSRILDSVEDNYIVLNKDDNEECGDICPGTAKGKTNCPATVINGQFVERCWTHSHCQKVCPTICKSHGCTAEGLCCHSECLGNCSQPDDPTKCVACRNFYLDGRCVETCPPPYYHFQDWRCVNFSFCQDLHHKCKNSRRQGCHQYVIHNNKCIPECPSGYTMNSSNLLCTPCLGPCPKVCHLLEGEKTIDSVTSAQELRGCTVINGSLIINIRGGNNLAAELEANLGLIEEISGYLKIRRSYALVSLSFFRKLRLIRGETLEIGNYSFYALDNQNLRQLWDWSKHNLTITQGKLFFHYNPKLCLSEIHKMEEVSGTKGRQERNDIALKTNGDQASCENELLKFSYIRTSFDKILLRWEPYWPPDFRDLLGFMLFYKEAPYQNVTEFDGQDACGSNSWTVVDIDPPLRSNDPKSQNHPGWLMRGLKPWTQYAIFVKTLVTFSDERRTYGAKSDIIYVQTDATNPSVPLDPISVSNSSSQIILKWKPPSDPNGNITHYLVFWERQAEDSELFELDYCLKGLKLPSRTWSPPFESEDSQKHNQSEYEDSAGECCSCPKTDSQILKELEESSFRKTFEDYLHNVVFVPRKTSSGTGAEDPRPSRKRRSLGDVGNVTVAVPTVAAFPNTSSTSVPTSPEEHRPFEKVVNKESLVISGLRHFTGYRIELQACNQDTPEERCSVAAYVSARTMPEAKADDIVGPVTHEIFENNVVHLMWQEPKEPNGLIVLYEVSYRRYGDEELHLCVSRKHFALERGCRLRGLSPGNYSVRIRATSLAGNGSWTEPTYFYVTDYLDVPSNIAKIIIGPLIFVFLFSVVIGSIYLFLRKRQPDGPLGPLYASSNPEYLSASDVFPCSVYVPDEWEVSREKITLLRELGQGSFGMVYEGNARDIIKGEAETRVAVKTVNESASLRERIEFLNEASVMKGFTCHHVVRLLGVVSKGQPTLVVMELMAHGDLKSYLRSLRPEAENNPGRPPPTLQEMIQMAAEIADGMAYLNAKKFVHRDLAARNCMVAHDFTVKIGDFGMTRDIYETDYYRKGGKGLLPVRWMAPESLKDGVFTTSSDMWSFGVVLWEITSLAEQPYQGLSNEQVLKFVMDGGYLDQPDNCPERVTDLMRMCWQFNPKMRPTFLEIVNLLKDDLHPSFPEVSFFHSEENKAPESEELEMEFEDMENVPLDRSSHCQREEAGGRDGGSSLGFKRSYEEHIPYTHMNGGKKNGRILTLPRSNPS
c-Met, sequence (P08581 25-1390): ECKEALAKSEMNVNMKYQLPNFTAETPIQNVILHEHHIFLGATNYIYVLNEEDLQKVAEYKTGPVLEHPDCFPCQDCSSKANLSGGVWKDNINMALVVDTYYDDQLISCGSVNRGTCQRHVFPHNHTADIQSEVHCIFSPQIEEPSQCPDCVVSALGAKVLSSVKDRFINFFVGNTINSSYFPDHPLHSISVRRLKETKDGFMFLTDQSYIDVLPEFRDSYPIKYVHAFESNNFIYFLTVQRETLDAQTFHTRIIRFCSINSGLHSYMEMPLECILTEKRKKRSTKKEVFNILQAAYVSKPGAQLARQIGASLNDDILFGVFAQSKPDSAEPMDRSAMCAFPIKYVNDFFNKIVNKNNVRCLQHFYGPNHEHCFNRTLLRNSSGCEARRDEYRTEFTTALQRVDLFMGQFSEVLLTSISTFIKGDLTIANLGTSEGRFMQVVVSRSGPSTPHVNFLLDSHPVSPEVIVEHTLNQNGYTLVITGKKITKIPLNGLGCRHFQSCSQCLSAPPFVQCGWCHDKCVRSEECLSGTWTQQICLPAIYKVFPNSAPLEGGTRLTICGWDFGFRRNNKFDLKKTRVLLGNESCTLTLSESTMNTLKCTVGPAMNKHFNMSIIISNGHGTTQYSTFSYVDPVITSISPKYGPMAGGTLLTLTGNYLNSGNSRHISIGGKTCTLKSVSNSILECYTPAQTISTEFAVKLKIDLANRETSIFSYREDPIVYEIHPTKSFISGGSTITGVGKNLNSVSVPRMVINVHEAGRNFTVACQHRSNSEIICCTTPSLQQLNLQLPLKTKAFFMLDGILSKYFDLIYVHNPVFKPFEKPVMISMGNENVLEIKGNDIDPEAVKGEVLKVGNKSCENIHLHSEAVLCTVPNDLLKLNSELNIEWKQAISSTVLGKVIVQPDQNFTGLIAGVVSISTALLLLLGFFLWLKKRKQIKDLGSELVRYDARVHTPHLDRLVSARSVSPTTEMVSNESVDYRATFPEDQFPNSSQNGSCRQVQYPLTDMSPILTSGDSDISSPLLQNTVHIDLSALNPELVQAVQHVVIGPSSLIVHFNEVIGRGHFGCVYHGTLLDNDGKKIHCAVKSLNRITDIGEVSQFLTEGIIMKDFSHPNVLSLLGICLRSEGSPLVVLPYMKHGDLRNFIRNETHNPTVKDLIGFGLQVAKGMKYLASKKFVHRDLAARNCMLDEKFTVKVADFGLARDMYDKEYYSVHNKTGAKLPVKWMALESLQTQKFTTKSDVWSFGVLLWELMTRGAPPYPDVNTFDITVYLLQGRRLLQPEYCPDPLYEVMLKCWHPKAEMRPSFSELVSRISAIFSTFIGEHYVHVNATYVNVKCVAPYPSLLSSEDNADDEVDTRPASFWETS
Trk C, sequence (Q16288 32-839): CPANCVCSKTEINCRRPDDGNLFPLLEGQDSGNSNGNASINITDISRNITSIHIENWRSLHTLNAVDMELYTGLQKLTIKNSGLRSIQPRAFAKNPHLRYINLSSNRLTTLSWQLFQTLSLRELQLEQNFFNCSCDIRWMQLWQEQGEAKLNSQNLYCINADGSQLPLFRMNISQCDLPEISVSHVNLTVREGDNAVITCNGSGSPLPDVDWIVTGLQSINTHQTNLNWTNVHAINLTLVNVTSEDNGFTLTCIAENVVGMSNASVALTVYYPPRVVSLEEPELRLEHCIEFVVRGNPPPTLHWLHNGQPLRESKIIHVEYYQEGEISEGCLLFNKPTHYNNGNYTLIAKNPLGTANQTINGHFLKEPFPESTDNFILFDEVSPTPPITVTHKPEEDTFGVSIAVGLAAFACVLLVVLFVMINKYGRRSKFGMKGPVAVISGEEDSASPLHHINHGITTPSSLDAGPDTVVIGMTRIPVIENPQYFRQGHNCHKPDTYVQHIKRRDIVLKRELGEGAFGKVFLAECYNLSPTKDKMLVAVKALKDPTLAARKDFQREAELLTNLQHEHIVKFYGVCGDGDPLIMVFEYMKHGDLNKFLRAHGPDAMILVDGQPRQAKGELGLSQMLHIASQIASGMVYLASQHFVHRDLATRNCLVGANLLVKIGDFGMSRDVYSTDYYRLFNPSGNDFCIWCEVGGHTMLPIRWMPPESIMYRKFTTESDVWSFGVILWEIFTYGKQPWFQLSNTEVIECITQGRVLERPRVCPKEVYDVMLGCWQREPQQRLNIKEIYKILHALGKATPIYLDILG

For the molecule `O=C(Nc1ccc(F)nc1)C1CCCN1c1nc2c(c(Nc3ccc(=O)[nH]n3)n1)CCC2` (stereo not shown) [Compound 101b, N-(6-fluoropyridin-3-yl)-1-(4-(6-oxo-1,6-dihydropyridazin-3-ylamino)-6,7-dihydro-5H-cyclopenta[d]pyrimidin-2-yl)pyrrolidine-2-carboxamide], the inhibition at 0.1 µM on Trk C, on c-Mer, on AXL and at c-Met was < 39% in each case.

For `CC(C)c1cc(Nc2nc(N3CCCC3C(=O)N3CCCCC3)nc3c2CCC3)n[nH]1` (stereo not shown) [Compound 73b, (1-(4-(5-isopropyl-1H-pyrazol-3-ylamino)-6,7-dihydro-5H-cyclopenta[d]pyrimidin-2-yl)pyrrolidin2--yl)(piperidin-1-yl)methanone], the figures for the concentration for half-maximal inhibition (IC50) on IGF-1R and against IR [1] were 1.4 µM and 1.3 µM, respectively. Moreover, the inhibition (as a rule, the change of the read-out against control, counted positive when it falls) at 0.1 µM on Trk C was > 60%; on c-Mer, < 39%; on AXL, < 39%; at c-Met, < 39%.

As to `O=C(Nc1nccs1)C1CCCN1c1nc2c(c(Nc3ncccn3)n1)CCC2` (stereo not shown) [Compound 105a, 1-(4-(pyrimidin-2-ylamino)-6,7-dihydro-5H-cyclopenta[d]pyrimidin-2-yl)-N-(thiazol-2-yl)pyrrolidine-2-carboxamide], the inhibition at 0.1 µM at Trk C, at c-Mer, at AXL and on c-Met was < 39% each time.

On to `O=C(Nc1ccc(F)nc1)C1CCCN1c1nc2c(c(Nc3ccccn3)n1)CCC2` (stereo not shown) [Compound 102a, N-(6-fluoropyridin-3-yl)-1-(4-(pyridin-2-ylamino)-6,7-dihydro-5H-cyclopenta[d]pyrimidin-2-yl)pyrrolidine-2-carboxamide], for which the inhibition at 0.1 µM on Trk C, on c-Mer, at AXL and at c-Met was < 39% throughout.

Turning to `CN(C)C(=O)C1CC(O)CN1c1nc2c(c(Nc3cc(C4CCCC4)[nH]n3)n1)CCC2` (stereo not shown) [Compound 110a, 1-(4-(5-cyclopentyl-1H-pyrazol-3-ylamino)-6,7-dihydro-5H-cyclopenta[d]pyrimidin-2-yl)-4-hydroxy-N,N-dimethylpyrrolidine-2-carboxamide], the inhibition at 1 µM was ≤ 40% at IR [2] and < 35% on IGF-1R. In addition, the “% Enzyme Inhibition @ 100 nM Trk C” value on Trk C was “+++ (High (60% or higher inhibition, +++))”. The “% Enzyme Inhibition @ 100 nM Trk B” value on Trk B is given as “++ (Medium (40 to 59% inhibition, ++))”. The “% Enzyme Inhibition @ 100 nM Trk A” value on Trk A was “+ (Low (39% or lower inhibition, +))”.

`CC(C)c1cc(Nc2nc(N3CC(O)CC3C(=O)N(C)C)nc3c2CCC3)n[nH]1` (stereo not shown) [Compound 109a, 4-hydroxy-1-(4-(5-isopropyl-1H-pyrazol-3-ylamino)-6,7-dihydro-5H-cyclopenta[d]pyrimidin-2-yl)-N,N-dimethylpyrrolidine-2-carboxamide]: the inhibition at 1 µM was ≤ 40% at IR [2] and < 35% on IGF-1R. Besides, the inhibition at 0.1 µM at Trk C, on Trk B (read-out: % Enzyme Inhibition @ 100 nM Trk B) and on Trk A (read-out: % Enzyme Inhibition @ 100 nM Trk A) was < 39% in each case.
